The source of these data is patent US20080058309A1, “Novel Compounds 171” (ASTRAZENECA AB, priority 2006, published 2008).

Counter-ions that a name gives are not always drawn.

The first data set has as its target T1, P2X7 receptor (Homo sapiens, UniProt Q99572).
T1 construct: 200 μl of a suspension of THP-1 cells; endogenous in cells; host or cells: THP-1 cells
T1 sequence (Q99572 1-595): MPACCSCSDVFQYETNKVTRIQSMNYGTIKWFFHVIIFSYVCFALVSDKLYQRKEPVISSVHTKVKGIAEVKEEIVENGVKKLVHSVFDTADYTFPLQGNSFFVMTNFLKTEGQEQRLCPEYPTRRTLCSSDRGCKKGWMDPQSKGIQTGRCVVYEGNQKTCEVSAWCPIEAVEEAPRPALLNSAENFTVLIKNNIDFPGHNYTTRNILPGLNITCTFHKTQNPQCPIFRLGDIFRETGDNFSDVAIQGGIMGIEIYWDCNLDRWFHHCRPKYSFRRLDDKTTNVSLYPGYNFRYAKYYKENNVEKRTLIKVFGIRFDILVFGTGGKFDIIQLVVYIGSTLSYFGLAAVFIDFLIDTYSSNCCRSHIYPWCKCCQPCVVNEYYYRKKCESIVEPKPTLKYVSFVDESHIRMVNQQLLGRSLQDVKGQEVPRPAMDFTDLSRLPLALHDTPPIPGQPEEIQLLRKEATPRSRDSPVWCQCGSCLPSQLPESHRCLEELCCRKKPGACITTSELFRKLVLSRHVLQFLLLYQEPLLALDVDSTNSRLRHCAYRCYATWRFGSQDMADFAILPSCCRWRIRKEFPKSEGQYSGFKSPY
In words: P2X7 receptor antagonist test: bbATP-induced ethidium bromide fluorescence in THP-1 cells. Type of data set: cell-based. Conditions: negative logarithm of concentration reducing bbATP agonist activity by 50%, 10^-5M bbATP, 37° C. one hour. An excerpt: Certain compounds such as benzoylbenzoyl adenosine triphosphate (bbATP) are known to be agonists of the P2X7 receptor, effecting the formation of pores in the plasma membrane (Drug Development Research (1996), 37(3), p. 126). Consequently, when the receptor is activated using bbATP in the presence of ethidium bromide (a fluorescent DNA probe), an increase in the fluorescence of intracellular DNA-bound ethidium bromide is observed. The increase in fluorescence can be used as a measure of P2X7 receptor activation and therefore to quantify the effect of a compound on the P2X7 receptor.
In this manner, each of the title compounds of the Examples was tested for antagonist activity at the P2X7 receptor. Thus, the test was performed in 96-well flat bottomed microtitre plates, the wells being filled with 250 μl of test solution comprising 200 μl of a suspension of THP-1 cells (2.5×10^6 cells/ml) containing 10^−4M ethidium bromide, 25 μl of a high potassium buffer solution containing 10^−5M bbATP, and 25 μl of the high potassium buffer solution containing concentrations of test compound typically from 30 μM-0.001 μM. The plate was covered with a plastics sheet and incubated at 37° C. for one hour. The plate was then read in a Perkin-Elmer fluorescent plate reader, excitation 520 nm, emission 595 nm, slit widths: Ex 15 nm, Em 20 nm. […]
Regarding `N#Cc1cccc(NCC(=O)Nc2c(Cl)ccc3nc(N4CC[C@@H](O)C4)ccc23)c1` [Example 7, N-[6-Chloro-2-[(3R)-3-hydroxy-1-pyrrolidinyl]-5-quinolinyl]-2-[(3-cyanophenyl)amino]-acetamide], the IC50 was 79.4 nM. The same measure, in the same setting: the figure for `O=C(CSc1ccccc1)Nc1c(Cl)ccc2nc(N3CC[C@@H](O)C3)ccc12` [Example 6, N-[6-Chloro-2-[(3R)-3-hydroxy-1-pyrrolidinyl]-5-quinolinyl]-2-(phenylthio)-acetamide] is 398 nM.

Tested on in the next data set: not given
Assay: not given
Conditions: not given
In the case of `O=C(CNc1ccc(F)cc1)Nc1c(Cl)ccc2nc(N3CC[C@@H](O)C3)ccc12`, the melting point fell in the range of 242 to 246 °C.

In the case of `N#Cc1ccc(NCC(=O)Nc2c(Cl)ccc3nc(N4CC[C@@H](O)C4)ccc23)cc1`, the melting point is 230 to 233 °C. Same read-out and setting: the figure for `O=C(CNc1cccc(F)c1)Nc1c(Cl)ccc2nc(N3CC[C@@H](O)C3)ccc12` is 218 to 220 °C; for `O=C(CNc1ccccc1Cl)Nc1c(Cl)ccc2nc(N3CC[C@@H](O)C3)ccc12` it is 215 to 219 °C. The same measure, in the same setting: with `CC(O)C(O)c1ccc2c(NC(=O)CNc3ccc(F)cc3)c(Cl)ccc2n1` (stereo not shown) the figure was 135 to 138 °C; with `O=C(CNc1cccc(Cl)c1)Nc1c(Cl)ccc2nc(N3CC[C@@H](O)C3)ccc12` (as salt: hydrochloride), 180 °C (dec.); with `O=C(COc1ccccc1)Nc1c(Cl)ccc2nc(N3CC[C@@H](O)C3)ccc12`, 233 to 235 °C. Still for that read-out and setting: the figure for `O=C(CSc1ccccc1)Nc1c(Cl)ccc2nc(N3CC[C@@H](O)C3)ccc12` [Example 6, N-[6-Chloro-2-[(3R)-3-hydroxy-1-pyrrolidinyl]-5-quinolinyl]-2-(phenylthio)-acetamide] is 246 to 249 °C; for `O=C(CNc1ccccc1)Nc1c(Cl)ccc2nc(N3CC[C@@H](O)C3)ccc12` it is 230 to 232 °C. Consider `O=C(CNc1ccc(Cl)cc1)Nc1c(Cl)ccc2nc(N3CC[C@@H](O)C3)ccc12` (as salt: hydrochloride), for which the melting point is 175 °C (dec.). Same read-out and setting: with `O=C(CNc1ccc(F)c(F)c1)Nc1c(Cl)ccc2nc(N3CC[C@@H](O)C3)ccc12` the figure was 238 to 240 °C.

The IC50 is the concentration that inhibits the measured activity by half. A higher IC50 goes with weaker potency. Usually melting point stands for the temperature of the solid-liquid transition.
